Assay results published in patent publication US20230227466A1, “SUBSTITUTED THIENOPYRIMIDINES THAT INTERACT WITH THE RAS SUPERFAMILY FOR THE TREATMENT OF CANCERS, INFLAMMATORY DISEASES, RASOPATHIES, AND FIBROTIC DISEASE” (SHY Therapeutics, LLC, priority 2020, published 2023).

Experiments:
[1] = test system: ERK1/2 phosphorylation in Panc-1 cells; test: Western ERK1/2 cell-based phosphorylation assay; design: species or system human; settings: at 10 μM, values in brackets < > are activation %, not inhibition
Protocol: Cell lines: Human tumor-derived pancreatic cancer cell line Panc-1 was purchased from American Type Culture Collection and grown in complete DMEM-High Glucose, supplemented with penicillin (100 U/mL), streptomycin (100 μg/mL), and 10% heat-inactivated FBS at 37° C. in a humidified incubator with 5% CO2.
(§1) Method: Cells were plated at 350000 cells/well density in a 12-well plate, allowed 3 hours to adhere to the plate, then starved in the appropriate medium in the presence of 0.5% FBS overnight. The small molecules to be tested were added to the cells in the final concentration of 10 μM in the presence of 0.3% DMSO for 6 hours incubation at 37° C. For IC50 value determination, serial dilutions of compounds were added to cells under the same conditions. Next, cells were stimulated with 1.5 ng/ml EGF for 15 minutes then cells were lysed with lysis buffer containing 1% Triton X-100, EDTA, and Halt™ Protease & Phosphatase Inhibitor Cocktail (Thermo Scientific). Protein concentration was assessed by BCA protein assay (Thermo Scientific). Phosphorylation level of ERK1/2 was determined by western blot.
(§2) Western blot protocol: Equal amounts of protein (15-50 μg) were separated by SDS-PAGE and transferred to nitrocellulose membranes (Invitrogen by Thermo Fisher Scientific). The membrane was stained with Ponceau S Stain (Boston BioProducts) to verify uniform protein loading. Membranes were blocked with 10% milk and phosphorylation levels of ERK1/2 were assessed by incubating overnight at 4° C. with anti-phospho-p44/42 (Thr202/Tyr204) antibody (Cell Signaling) followed by HRP-conjugated secondary antibody (Jackson Immunoresearch, West Grove, Pa.). Bands were incubated in Amersham ECL Prime Western Blotting Detection Reagent (GE Healthcare) and visualized using the ChemiDoc MP imaging system (Bio-Rad). Protocol for Western AKT cell-based phosphorylation assay

[2] = test system: Akt phosphorylation in Panc-1 cells; test: Western AKT cell-based phosphorylation assay; design: species or system human; settings: at 10 μM, values in brackets < > are activation %, not inhibition
Protocol: Human Tumor-Derived Pancreatic Cancer Cell Line Panc-1 was Purchased from
American Type Culture Collection and grown in complete DMEM-High Glucose supplemented with penicillin (100 U/mL), streptomycin (100 μg/mL), and 10% heat-inactivated FBS at 37° C. in a humidified incubator with 5% CO2.
as §1, with “C.” for “C. For IC50 value determination, serial dilutions of compounds were added to cells under the same conditions.”, “Akt” for “ERK1/2”
as §2, with “Akt” for “ERK1/2”, “anti-phospho-Akt (Ser473)” for “anti-phospho-p44/42 (Thr202/Tyr204)”, “(Bio-Rad).” for “(Bio-Rad). Protocol for Western AKT cell-based phosphorylation assay”

| Compound | % inh of ERK1/2 phosphorylation in PANC-1 [1] | % inh of AKT phosphorylation in PANC-1 [2] |
| --- | --- | --- |
| COCCNc1nc(-c2nccn2C)nc2sc(-c3ccn(C(C)C)n3)c(C)c12 [Compound 35, 6-(1-Isopropyl-1H-pyrazol-3-yl)-N-(2-methoxyethyl)-5-methyl-2-(1-methyl-1H-imidazol-2-yl)thieno[2,3-d]pyrimidin-4-amine] | 0 (0% inhibition) | 0 (0% inhibition) |
| CO[C@H]1CN(c2nc(-c3nccn3C)nc3sc(-c4ccn(C(C)C)n4)c(C)c23)C[C@H]1OC [Compound 39, rac-4-((3S,4R)-3,4-Dimethoxypyrrolidin-1-yl)-6-(1-isopropyl-1H-pyrazol-3-yl)-5-methyl-2-(1-methyl-1H-imidazol-2-yl)thieno[2,3-d]pyrimidine] | 0 (0% inhibition) | <B> |
| CO[C@H]1C[C@@H](Nc2nc(-c3nccn3C)nc3sc(-c4ccn(C(C)C)n4)c(C)c23)C[C@H]1OC [Compound 42, N-((1r,3R,4S)-3,4-Dimethoxycyclopentyl)-6-(1-isopropyl-1H-pyrazol-3-yl)-5-methyl-2-(1-methyl-1H-imidazol-2-yl)thieno[2,3-d]pyrimidin-4-amine] | B (26-50% inhibition) | <D> |
| CO[C@H]1C[C@H](Nc2nc(-c3nccn3C)nc3sc(-c4ccn(C(C)C)n4)c(C)c23)C[C@H]1OC [Compound 43, N-((1s,3R,4S)-3,4-Dimethoxycyclopentyl)-6-(1-isopropyl-1H-pyrazol-3-yl)-5-methyl-2-(1-methyl-1H-imidazol-2-yl)thieno[2,3-d]pyrimidin-4-amine] | B (26-50% inhibition) | <D> |
| Cc1c(-c2ccn(C(C)C)n2)sc2nc(-c3nccn3C)nc(NCCc3nnn[nH]3)c12 [Compound 46, N-(2-(1H-Tetrazol-5-yl)ethyl)-6-(1-isopropyl-1H-pyrazol-3-yl)-5-methyl-2-(1-methyl-1H-imidazol-2-yl)thieno[2,3-d]pyrimidin-4-amine] | 0 (0% inhibition) | A (1-25% inhibition) |
| CO[C@H]1C[C@@H](CNc2nc(-c3nccn3C)nc3sc(-c4ccn(C(C)C)n4)c(C)c23)C1 [Compound 47, 6-(1-Isopropyl-1H-pyrazol-3-yl)-N-(((1s,3s)-3-methoxycyclobutyl)methyl)-5-methyl-2-(1-methyl-1H-imidazol-2-yl)thieno[2,3-d]pyrimidin-4-amine] | D (76-100% inhibition) | 0 (0% inhibition) |
| CO[C@H]1C[C@H](CNc2nc(-c3nccn3C)nc3sc(-c4ccn(C(C)C)n4)c(C)c23)C1 [Compound 48, 6-(1-Isopropyl-1H-pyrazol-3-yl)-N-(((1r,3r)-3-methoxycyclobutyl)methyl)-5-methyl-2-(1-methyl-1H-imidazol-2-yl)thieno[2,3-d]pyrimidin-4-amine] | D (76-100% inhibition) | 0 (0% inhibition) |
| CO[C@H]1CCCN(c2nc(-c3nccn3C)nc3sc(-c4ccn(C(C)C)n4)c(C)c23)C1 [Compound 49, (S)-6-(1-Isopropyl-1H-pyrazol-3-yl)-4-(3-methoxypiperidin-1-yl)-5-methyl-2-(1-methyl-1H-imidazol-2-yl)thieno[2,3-d]pyrimidine] | D (76-100% inhibition) | D (76-100% inhibition) |
| CO[C@@H]1CCCN(c2nc(-c3nccn3C)nc3sc(-c4ccn(C(C)C)n4)c(C)c23)C1 [Compound 50, (R)-6-(1-Isopropyl-1H-pyrazol-3-yl)-4-(3-methoxypiperidin-1-yl)-5-methyl-2-(1-methyl-1H-imidazol-2-yl)thieno[2,3-d]pyrimidine] | D (76-100% inhibition) | D (76-100% inhibition) |
| Cc1c(-c2ccn(C(C)C)n2)sc2nc(-c3nccn3C)nc(NC[C@@H]3CCC(=O)N3)c12 [Compound 51] | 0 (0% inhibition) | 0 (0% inhibition) |
| Cc1c(-c2ccn(C(C)C)n2)sc2nc(-c3nccn3C)nc(NC[C@H]3CCC(=O)N3)c12 [Compound 52, (R)-5-(((6-(1-Isopropyl-1H-pyrazol-3-yl)-5-methyl-2-(1-methyl-1H-imidazol-2-yl)thieno[2,3-d]pyrimidin-4-yl)amino)methyl)pyrrolidin-2-one] | 0 (0% inhibition) | 0 (0% inhibition) |
| Cc1c(-c2ccn(C(C)C)n2)sc2nc(-c3nccn3C)nc(NCCc3ncc[nH]3)c12 [Compound 53, N-(2-(1H-Imidazol-2-yl)ethyl)-6-(1-isopropyl-1H-pyrazol-3-yl)-5-methyl-2-(1-methyl-1H-imidazol-2-yl)thieno[2,3-d]pyrimidin-4-amine] | 0 (0% inhibition) | 0 (0% inhibition) |
| CO[C@H]1CC[C@H](Nc2nc(-c3nccn3C)nc3sc(-c4ccn(C(C)C)n4)c(C)c23)CC1 [Compound 54] | D (76-100% inhibition) | <A> |
| CO[C@H]1CC[C@@H](Nc2nc(-c3nccn3C)nc3sc(-c4ccn(C(C)C)n4)c(C)c23)CC1 [Compound 55] | D (76-100% inhibition) | <A> |
| Cc1c(-c2ccn(C(C)C)n2)sc2nc(-c3nccn3C)nc(NCc3ncc[nH]3)c12 [Compound 57, N-((1H-Imidazol-2-yl)methyl)-6-(1-isopropyl-1H-pyrazol-3-yl)-5-methyl-2-(1-methyl-1H-imidazol-2-yl)thieno[2,3-d]pyrimidin-4-amine] | A (1-25% inhibition) | 0 (0% inhibition) |
| Cc1c(-c2ccn(C(C)C)n2)sc2nc(-c3nccn3C)nc(NCCc3cn(C)cn3)c12 [Compound 58, 6-(1-Isopropyl-1H-pyrazol-3-yl)-5-methyl-2-(1-methyl-1H-imidazol-2-yl)-N-(2-(1-methyl-1H-imidazol-4-yl)ethyl)thieno[2,3-d]pyrimidin-4-amine] | A (1-25% inhibition) | 0 (0% inhibition) |
| Cc1c(-c2ccn(C(C)C)n2)sc2nc(-c3nccn3C)nc(NCc3c[nH]cn3)c12 [Compound 59, N-((1H-Imidazol-4-yl)methyl)-6-(1-isopropyl-1H-pyrazol-3-yl)-5-methyl-2-(1-methyl-1H-imidazol-2-yl)thieno[2,3-d]pyrimidin-4-amine] | 0 (0% inhibition) | 0 (0% inhibition) |
| Cc1c(-c2ccn(C(C)C)n2)sc2nc(-c3nccn3C)nc(NCc3n[nH]c(=O)n3C)c12 [Compound 60, 5-(((6-(1-Isopropyl-1H-pyrazol-3-yl)-5-methyl-2-(1-methyl-1H-imidazol-2-yl)thieno[2,3-d]pyrimidin-4-yl)amino)methyl)-4-methyl-2,4-dihydro-3H-1,2,4-triazol-3-one] | 0 (0% inhibition) | 0 (0% inhibition) |
| COc1cccc(Nc2nc(-c3nccn3C)nc3sc(-c4ccn(C(C)C)n4)c(C)c23)c1 [Compound 64, 6-(1-Isopropyl-1H-pyrazol-3-yl)-N-(3-methoxyphenyl)-5-methyl-2-(1-methyl-1H-imidazol-2-yl)thieno[2,3-d]pyrimidin-4-amine] | D (76-100% inhibition) | B (26-50% inhibition) |
